{
  "source": "patent US20060167083A1",
  "about": "“Therapeutic methods and compositions involving isoflav-3-ene and isoflavan structures” (priority 2002, published 2006)",
  "key": {"[1]": {"target": "T1, human topo I (Homo sapiens, UniProt P11387)", "T1 construct": "purchased Topogen (Columbus, Ohio)", "T1 sequence (P11387 1-765)": "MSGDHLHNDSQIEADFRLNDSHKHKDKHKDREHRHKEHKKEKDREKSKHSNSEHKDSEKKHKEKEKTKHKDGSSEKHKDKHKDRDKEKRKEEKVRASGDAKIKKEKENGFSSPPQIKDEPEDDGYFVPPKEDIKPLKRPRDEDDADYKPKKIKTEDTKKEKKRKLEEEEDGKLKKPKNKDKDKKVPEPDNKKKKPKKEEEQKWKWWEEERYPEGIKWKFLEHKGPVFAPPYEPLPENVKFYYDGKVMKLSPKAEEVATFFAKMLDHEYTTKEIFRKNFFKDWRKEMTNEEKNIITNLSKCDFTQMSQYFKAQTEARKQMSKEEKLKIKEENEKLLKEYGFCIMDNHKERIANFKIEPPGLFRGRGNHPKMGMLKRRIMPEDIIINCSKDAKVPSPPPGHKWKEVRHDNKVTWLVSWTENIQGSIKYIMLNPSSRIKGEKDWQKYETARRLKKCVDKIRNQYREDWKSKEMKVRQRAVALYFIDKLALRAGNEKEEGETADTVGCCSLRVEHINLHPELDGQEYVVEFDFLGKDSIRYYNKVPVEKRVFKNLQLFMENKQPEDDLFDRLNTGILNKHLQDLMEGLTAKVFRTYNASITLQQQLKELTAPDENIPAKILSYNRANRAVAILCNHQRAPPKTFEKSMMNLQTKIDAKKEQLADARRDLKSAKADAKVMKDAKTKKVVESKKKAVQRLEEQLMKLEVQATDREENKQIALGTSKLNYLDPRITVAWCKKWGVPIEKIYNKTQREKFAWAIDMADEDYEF", "experiment": "Topo I-mediated plasmid-nicking assay", "type": "biochemical", "conditions": "20 and 100 μg/ml", "procedure": "Single-strand DNA breakage was determined by converting relaxed (REL) or supercoiled (SC) pUC8 DNA to the nicked form (NIC).\nUnder the electrophoretic conditions that were used in the experiment shown in FIG. 4, covalently closed circular (supercoiled or relaxed) plasmid DNA migrates on the bottom of the gel. In the presence of a topo I poison that stabilises the cleavable complex, and following denaturation and degradation of the enzyme with proteinase K/SDS, the resulting nicked DNA migrates on the top of the gel.\nTopo I poisons enhance topo I-mediated pUC8 DNA cleavage under the reaction conditions provided by the supplier of the enzyme (Topogen, Inc.). Briefly, 20 μl of reaction mixtures contained 10 mM Tris-HCl, pH 7.5, 1 mM EDTA, 100 mM NaCl, 1 μl of the test agent (or solvent), 0.5 μg of pUC8, and 10 units of human topo I (added last). After a 30-min incubation at 37° C., SDS-proteinase K was added, and, following a 30-min incubation at 37° C., samples were extracted with CHCl3-isopropanol and electrophoresed on a 1% agarose gel containing 0.5 μg/ml ethidium bromide. Gels were photographed, and photographic negatives were scanned."}, "[2]": {"target": "T2, tNOX (Homo sapiens, UniProt Q16206)", "T2 construct": "endogenous in cells; host or cells: HeLa (human cervical carcinoma)", "T2 sequence (Q16206 whole entry)": "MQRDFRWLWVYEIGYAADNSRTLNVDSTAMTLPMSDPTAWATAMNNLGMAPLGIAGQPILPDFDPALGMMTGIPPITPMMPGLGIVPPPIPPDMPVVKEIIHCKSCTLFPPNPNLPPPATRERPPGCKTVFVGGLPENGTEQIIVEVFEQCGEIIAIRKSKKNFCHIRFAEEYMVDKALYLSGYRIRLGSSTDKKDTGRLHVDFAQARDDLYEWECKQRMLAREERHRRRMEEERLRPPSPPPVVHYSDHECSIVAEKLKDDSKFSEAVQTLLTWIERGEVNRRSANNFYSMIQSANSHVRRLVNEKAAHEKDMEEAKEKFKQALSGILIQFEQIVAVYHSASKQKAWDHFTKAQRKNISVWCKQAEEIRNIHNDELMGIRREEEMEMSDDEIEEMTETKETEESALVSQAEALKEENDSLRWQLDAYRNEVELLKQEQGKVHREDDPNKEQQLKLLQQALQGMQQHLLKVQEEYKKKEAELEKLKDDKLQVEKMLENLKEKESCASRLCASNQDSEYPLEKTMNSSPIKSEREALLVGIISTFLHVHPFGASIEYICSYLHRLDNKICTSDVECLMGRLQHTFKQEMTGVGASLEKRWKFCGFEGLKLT", "experiment": "tNOX inhibition, 96-well plate assay with HeLa in dithiodipyridine substrate", "type": "cell-based", "conditions": "10 μm", "description": "A 96-well plate assay was used containing human cervical carcinoma (HeLa) in a dithiodipyridine substrate."}, "[3]": {"tested_on": "colon cancer line HT29", "experiment": "Anti-proliferative effect on HT29", "type": "cell-based", "conditions": "Homo sapiens, HT-29"}, "[4]": {"tested_on": "prostate cancer line PC3", "experiment": "Anti-proliferative effect on PC3", "type": "cell-based", "conditions": "Homo sapiens, PC-3"}, "[5]": {"tested_on": "human prostatic adenocarcinoma cell line LNCaP", "experiment": "Proliferation of LNCaP cells, MTT assay", "type": "cell-based", "experimental": "Proliferation assay: HUVEC were seeded at 3×10^3 cells per gelatin-coated microtitre well and grown in complete medium for 3 days. Dehydroequol (De) was added 3 hours after plating. Proliferation was measured using the MTT assay (Promega, Wis., USA) and is given as the rate of proliferation over the 3 days±SEM of quadruplicate determinations for each group. Proliferation of LNCaP cells was determined using the MTT assay. Cells were seeded at 2.5×10^3 cells per microtitre well. De was added 4 days after plating and assayed after a further 5 days of growth. Cell viability is expressed as a percentage of control untreated cells."}, "[6]": {"tested_on": "K562, HL60, MCF7, HT29, CaCo-2, DU145, PC3 and LNCaP cell lines", "experiment": "Cytotoxic potency compared with genistein on the cancer cell line panel", "type": "cell-based", "conditions": "on these cell lines"}, "[7]": {"tested_on": "LNCaP human prostate cells", "experiment": "Athymic mice xenograft assay", "type": "in vivo, athymic Balb/c mice", "conditions": "2 mg uid orally, 5 days per week, 58 days; treated versus control group, p<0.0003", "experimental": "Athymic mice xenograft assay: LNCaP human prostate cells were implanted subcutaneously into athymic Balb/c mice and De (2 mg uid) administered orally from the time of cell inoculation for 5 days per week. Animals were killed 58 days post-implantation and tumour mass (mg) calculated from the formula (width^2×length)/2 as used in NCI."}, "[8]": {"tested_on": "Ras transformed NIH 3T3 cells", "experiment": "Focus formation assay", "type": "cell-based", "conditions": "10 μg/ml, 3 weeks", "experimental": "(§1) Focus formation assay: Low passage NIH 3T3 cells were transfected with either human ras gene (Ras) or empty vector (Vect) control^19. Two days later the transfected cells were seeded in 6 well plates. After reaching confluence, the cells were cultured in the vehicle DMSO or De (10 μg/ml final) for 3 weeks with media change every 3-4 days (±De). Foci were scored after staining with 0.5% crystal violet. One experiment of two performed is shown."}, "[9]": {"tested_on": "normal NIH 3T3 cells", "experiment": "Viability of normal NIH 3T3 cells in focus formation assay", "type": "cell-based", "conditions": "10 μg/ml, 3 weeks", "experimental": "as §1"}, "[10]": {"tested_on": "Human umbilical vein endothelial cells (HUVEC)", "experiment": "Endothelial cell migration (wound) assay", "type": "cell-based", "experimental": "Migration assay: HUVEC were plated at 5×10^5 cells per gelatin-coated 6 well dish and grown to confluence over 48 hours. Wounds were made in the monolayer, cells washed 3 times and fresh complete media with or without De (10 μg/ml final concentration) added. Migration was viewed over the following 18-72 hours."}, "[11]": {"tested_on": "E selectin", "experiment": "E selectin expression assay on endothelial cells (FACS)", "type": "cell-based, human", "conditions": "10 μg/ml 18 hours prior to stimulation; TNF and IL-1", "experimental": "E selectin and VCAM-1 assays: HUVEC were plated at 5×10^5 cells per 6 well dish. Cells were treated with DMSO vehicle or De (10 μg/ml final) for 18 hours prior to TNFα (1 ng/ml) addition. After 4 or 18 hours, cells were washed with PBS and incubated with antibodies against E selectin (Mab49-1B11) or VCAM-1 (Nab51-10C9) for 30 min. Goat F(ab′)2 fragment mouse-IgG(H+L)-FITC antibody (Immunotech, Marseille, France) was then added for 30 min. The cells were then trypsinised and FACS analysed on a Coulter Epics® XL-MCL (Beckman Coulter). Results are expressed as arbitrary units relating to the mean intensity of FITC fluorescence."}, "[12]": {"tested_on": "VEGF receptor 2", "experiment": "VEGF receptor 2 expression on EC, flow cytometric analysis", "type": "cell-based", "conditions": "after De treatment, data not shown"}, "[13]": {"tested_on": "Sphingosine Kinase (SK)", "experiment": "Sphingosine kinase activity assay in endothelial cells", "type": "cell-based, human", "experimental": "Sphingosine Kinase activity assay: SK activity was measured in vitro by incubating the cytosolic fraction with 10 μM sphingosine-BSA complex and [γ^32P]ATP (1 mM, 0.5 mCi/ml) for 15 minutes at 37° C., as previously described^42. Stimulation was with TNFα (1 ng/ml) (rhTNF-α; R & D Systems, Minneapolis Minn. USA), PMA (100 ng/ml) and IL-1β (100 units/ml) (hrIL-1β; Immunex, Seattle Wa. USA) for 10 minutes. Cells were treated with De or DMSO vehicle as control for 18 hours prior to stimulation."}},
  "note": "Read-outs that look alike come from different tables or passages of the source.",
  "data": [
    {"smiles": "Oc1ccc(C2=Cc3ccc(O)cc3OC2)cc1", "note": "[Dehydroequol, 4′,7-dihydroxyisoflav-3-ene]", "values": [
      {"measurement": "topo I-mediated single-strand DNA breakage (nicked DNA)", "setting": "[1]", "value": "failed to produce nicked DNA"},
      {"measurement": "inhibition of tNOX activity", "setting": "[2]", "value": "inhibit tNOX activity"},
      {"measurement": "IC50", "setting": "[3]", "value": 15, "unit": "µg/mL"},
      {"measurement": "IC50", "setting": "[4]", "value": 2, "unit": "µg/mL"},
      {"measurement": "IC50", "setting": "[5]; LNCaP, read-out: IC50 anti-proliferative", "value": 1.5, "unit": "µg/mL"},
      {"measurement": "IC50", "setting": "[5]; LnCaP, n=3 separate experiments, read-out: In vitro cytotoxicity IC50", "value": 4.4, "unit": "µM"},
      {"measurement": "potency as a cytotoxic agent relative to genistein", "setting": "[6]", "value": "5-20 times"},
      {"measurement": "tumour growth inhibition", "setting": "[7]", "value": 49, "unit": "%"},
      {"measurement": "inhibition of development of colonies (foci)", "setting": "[8]", "value": "completely inhibited"},
      {"measurement": "viability of normal cells", "setting": "[9]", "value": "still maintaining the viability"},
      {"measurement": "inhibition of EC migration", "setting": "[10]; 10 μg/ml", "value": "inhibits"},
      {"measurement": "viability of EC not in the vicinity of the wound", "setting": "[10]; in the presence of De for 72 hours", "value": "remained viable"},
      {"measurement": "induction of E selectin on the endothelium", "setting": "[11]", "value": "inhibits the induction"},
      {"measurement": "level of expression of VEGF receptor 2", "setting": "[12]", "value": "no changes"},
      {"measurement": "SK inhibition compared with N,N-dimethylsphingosine (DMS)", "setting": "[13]", "value": "equipotent"},
      {"measurement": "inhibition of SK activity generated by stimulation with IL-1", "setting": "[13]; dose-dependent, 18 hours pretreatment, IL-1β 100 units/ml 10 minutes", "value": "inhibits"},
      {"measurement": "inhibition of SK activity generated by stimulation with PMA", "setting": "[13]; dose-dependent, 18 hours pretreatment, PMA 100 ng/ml 10 minutes", "value": "inhibits"},
      {"measurement": "inhibition of SK activity generated by stimulation with TNF", "setting": "[13]; dose-dependent, 18 hours pretreatment, TNFα 1 ng/ml 10 minutes", "value": "inhibits"},
      {"measurement": "effect on basal levels of SK activity", "setting": "[13]; unstimulated", "value": "no effect"}
    ]}
  ]
}
